Measured values: US20150337315A1, “COMPOSITIONS AND METHODS TARGETING SIGNALING BY THE G PROTEIN BETA-GAMMA SUBUNIT FOR THE TREATMENT OF ASTHMA” (priority 2014, published 2015)
“Also recorded” adds a separate entry of the source.

Legend:
[1] = test system: PDE activity in asthmatic HASM cells; test: cAMP PDE activity assay in lysates of treated or siRNA-transfected asthmatic HASM cells; format: cell-based, human; conditions: for effect on heightened basal PDE activity: × 2 hr
Experimental: Primary cultures of HASM cells derived from bronchial smooth muscle freshly isolated post-mortem from normal non-asthmatic (n=3) and asthmatic (n=4) donor lungs were purchased at passage 2-3 from Lonza Walkersville, Inc. Other than data regarding age, race, and gender of the donors provided in Table 1, limited information was available with respect to clinical severity of asthma, treatment history, or cause of death, with exception to asthma donor #1. All the experiments were conducted at passage 5-6, after growing the cells in Lonza's serum-containing SmBM medium supplemented with the BulletKit medium that contains insulin, human FGF, gentamycin/amphotericin B. The cells were maintained throughout in a humidified incubator containing 5% CO2 in air at 37° C. and, after attaining ˜90% confluence, cells were growth arrested for 24 hr in serum-free Ham's F12 medium. Thereafter, the cells were examined for constitutive and induced changes in PDE activity, levels of free Gβ, c-Src and ERK1/2 phosphorylation, and PDE4D protein expression, all in the absence and presence of different pretreatment conditions, as described.
Levels of total cAMP PDE activity were determined in normal and asthmatic HASM cells at baseline and at different times ranging from 0.25-24 hr following administration of a maximally effective concentration of either: 1) a cell permeable anti-Gβγ blocking peptide (1 μM; AnaSpec; Premont, Calif.), comprised of a membrane permeable sequence (MPS; 15 amino acids) conjugated to the Gβγ-sequestering C-terminal domain (28 amino acids) of phosducin-like protein [28]; 2) the inert MPS peptide alone (1 μM) serving as a negative-control; or 3) 1 μM of gallein [29], a recently described small molecule inhibitor of Gβγ signaling (Acros Organics). PDE activity was also assayed in normal and asthmatic HASM cells following dose-dependent administration of anti-Gβγ blocking peptide (0.01-10 μM), and following treatment with various small molecule inhibitors, as described. The PDE activity assay was performed in the HASM cell lysates using a colorimetric, non-radioactive enzymatic assay (Enzo Life Sciences; Plymouth Meeting, Pa.) as per the manufacturer's protocol, with some modification of our previously described approach. Specifically, to maximize the sensitivity and yield of the measurement enzyme activity, we used materials including a cell lysis buffer completely free of phosphate, composed of 50 mM Tris, pH 7.5, 0.1 mM EDTA, 0.1 mM EGTA, 1 mM DTT and 0.2% NP-40. The measured levels of PDE activity were standardized to protein content in the cell extracts. Finally, PDE activity was also assayed in normal and asthmatic HASM cells following transfection with siRNA preparations targeted at suppressing specific signaling molecules, as described below.
Targeted protein suppression using siRNA preparations was examined in normal and asthmatic HASM cells that were initially seeded into 6-well plates and, at ˜40% confluency, the medium was replaced with the reduced serum-containing medium, Opti-MEM (Invitrogen). Cells were then transfected twice during a 24-hr interval with pools of siRNA preparations, each pool comprised of three siRNA duplexes targeted against either human Rap1GAP (Ambion; ID: s11785, s11786, s11787), RGS14, (Ambion; ID: 18059, 18147, 135857), or the PKAα catalytic subunit (Santa Cruz Biotechnology; Pool ID: sc-36240), as well as a non-targeted (scrambled) siRNA duplex serving as a negative control. As previously described [16.17.31], the transfections were carried out using Oligofectamine (Invitrogen) as the transfection agent, and the pools of siRNAs were applied to each well at a final concentration of 100 nM for each siRNA preparation.

[2] = test system: PDE activity evoked in cultured normal HASM cells; conditions: sensitized under various proasthmatic conditions; [16-18]; cited from earlier work
[3] = test system: isolated rabbit ASM tissues; conditions: sensitized under various proasthmatic conditions; [16-18]; cited from earlier work
[4] = test system: PDE activity detected in cultured asthmatic HASM cells; conditions: recent report [27]; cited from earlier work
asthmatic individuals = conditions: cited from earlier work
allergic rabbits = conditions: previous study (18); cited from earlier work
[5] = test system: phosphorylated c-Src (p-Src); test: Immunoblot of phosphorylated c-Src (Tyr416) in asthmatic HASM cells; format: cell-based, human
Experimental: (§1) Levels of total and phosphorylated c-Src at residue Tyr416 and ERK1/2 proteins, as well as Gβ protein, were detected by Western blot analysis of lysates isolated from normal and asthmatic HASM cells before and at various times after treatment either with 1 μM of anti-Gβγ blocking peptide or gallein, or the c-Src family tyrosine kinase-selective inhibitor, SU6656 (10 μM), or exposure to the pro-asthmatic Th2 cytokine, IL-13 (50 ng/ml), as described. Following protein extraction and addition of gel loading buffer, the cellular extracts were loaded on a 10% SDS-PAGE gel for immunoblotting after transfer to a PVDF membrane. The membranes were then incubated overnight with monoclonal mouse anti-human primary antibodies directed against c-Src, phospho-c-Src^Tyr416, ERK1/2 and phospho-ERK1/2 (Millipore; Billerica, Mass.), and a rabbit anti-human polyclonal antibody directed against the Gβ subunit (Millipore; Billerica, Mass.). Protein levels were detected by ECL after a 1-hr incubation with a 1:2,000 dilution of HRP-conjugated secondary antibody, followed by exposure to autoradiography film. The protein band intensities were quantified by densitometry.

[6] = test system: co-localization of Gβ with immunoprecipitated Gα; test: Western blot / Co-IP of free Gβ and Gα-associated Gβ in asthmatic HASM cells; format: cell-based, human; conditions: 1 μM, 30 min
Experimental: as §1, with “The membranes were then incubated overnight with monoclonal mouse anti-human primary antibodies directed against c-Src, phospho-c-Src^Tyr416, ERK1/2 and phospho-ERK1/2 (Millipore; Billerica, Mass.), and a rabbit anti-human polyclonal antibody directed against the Gβ subunit (Millipore; Billerica, Mass.).” left out
(§2) Normal and asthmatic HASM cells were prepared for co-immunoprecipitation (Co-IP) studies, performed as previously described, under native conditions in order to preserve protein-protein associations. […] The precipitated immunocomplexes were subsequently analyzed by immunoblotting using either anti-Gβ, anti-phospho-c-Src^Tyr416, anti-ERK1/2, or anti-PDE4D rabbit polyclonal antibody, or anti-Rap1GAP rabbit monoclonal IgG antibody (Millipore; Billerica, Mass.).

[7] = test system: co-localization of p-Src with immunoprecipitated Gβ; test: Co-IP of p-Src with immunoprecipitated Gβ in IL-13-treated normal HASM cells; format: cell-based, human; conditions: IL-13 × 60 min
Experimental: as §1, with “The membranes were then incubated overnight with monoclonal mouse anti-human primary antibodies directed against c-Src, phospho-c-Src^Tyr416, ERK1/2 and phospho-ERK1/2 (Millipore; Billerica, Mass.), and a rabbit anti-human polyclonal antibody directed against the Gβ subunit (Millipore; Billerica, Mass.).” left out
as §2

[8] = test system: co-localization of Gβ with immunoprecipitated Gα; test: Western blot / Co-IP of free Gβ and Gα-associated Gβ in normal HASM cells; format: cell-based, human; conditions: 1 μM, 30 min
Experimental: as §1, with “The membranes were then incubated overnight with monoclonal mouse anti-human primary antibodies directed against c-Src, phospho-c-Src^Tyr416, ERK1/2 and phospho-ERK1/2 (Millipore; Billerica, Mass.), and a rabbit anti-human polyclonal antibody directed against the Gβ subunit (Millipore; Billerica, Mass.).” left out
as §2

[9] = test system: phosphorylated ERK1/2 (p-ERK1/2); test: Immunoblot of phosphorylated ERK1/2 in asthmatic HASM cells; format: cell-based, human; conditions: 1 μM × 30 min
Experimental: as §1

[10] = test system: co-localization of ERK1/2 with PDE4D; test: Co-IP of PDE4D with immunoprecipitated ERK1/2 in asthmatic HASM cells; format: cell-based, human; conditions: within 30 min
Experimental: Normal and asthmatic HASM cells were prepared for co-immunoprecipitation (Co-IP) studies, performed as previously described, under native conditions in order to preserve protein-protein associations. After indicated treatments, cells were harvested and then exposed to lysis buffer. 1.5 mg of Protein G Dynabeads (Invitrogen; Carlsbad, Calif.) were incubated with 10 μg of anti-Gβ rabbit IgG (Millipore) or anti-Gα (pan) rabbit polyclonal antibody (Millipore; Billerica, Mass.) and incubated for 10 min at room temperature with rotation. Following several washes, the bound bead/antibody complex was added to sample, mixed by pipetting, and incubated for 2 hr at 4° C. with rotation. The captured bead/Protein G/antigen complex was then washed several times and eluted at pH 3.0 with rotation at room temperature. The precipitated immunocomplexes were subsequently analyzed by immunoblotting using either anti-Gβ, anti-phospho-c-Src^Tyr416, anti-ERK1/2, or anti-PDE4D rabbit polyclonal antibody, or anti-Rap1GAP rabbit monoclonal IgG antibody (Millipore; Billerica, Mass.).

free Gβ protein levels = test: Immunoblot of free Gβ protein in IL-13-treated normal HASM cells; format: cell-based, human; conditions: IL-13 50 ng/ml, 50 μg/ml printed
Experimental: as §1

O=S(=O)(NCCNC/C=C/c1ccc(Br)cc1)c1cccc2cnccc12 [H89]
effect on heightened basal PDE activity ([1]; 10 μM): no significant effect

N#CC(=C(/N)Sc1ccccc1N)/C(C#N)=C(\N)Sc1ccccc1N [U0126]
effect on heightened basal PDE activity ([1]; 5 μM): acutely reversed to near normal levels; also recorded: acutely suppressed the elevated PDE activity in asthmatic HASM cells to near normal levels

COc1ccc(C2CNC(=O)C2)cc1OC1CCCC1 (centres unmarked) [rolipram]
effect on heightened constitutive PDE activity ([1]; 10 μM × 1 hr, data not shown): completely abrogated | effect on increased PDE activity evoked in cultured normal HASM cells [2]: inhibits | effect on increased PDE activity evoked in isolated rabbit ASM tissues [3]: inhibits

O=C(Nc1c(Cl)cncc1Cl)c1ccc(OC(F)F)c(OCC2CC2)c1 [roflumilast]
effect on increased PDE activity in cultured asthmatic HASM cells [4]: inhibited | effect on airway hyperresponsiveness following allergen challenge (asthmatic individuals; [19,21]): decreases airway hyperresponsiveness | effect on lung function (asthmatic individuals; [20]): improves lung function

O=C1OC2(c3ccccc31)c1ccc(O)c(O)c1Oc1c2ccc(O)c1O [gallein]
time at which PDE activity is suppressed to normal levels ([1]; 1 μM): 0.25 h | effect on constitutively increased PDE activity in asthmatic HASM cells ([1]; 1 μM (maximally effective concentration), acute effect): similarly acutely suppressed | duration of suppression of PDE activity ([1]; 1 μM, followed up to 24 hr): transient in nature | effect of pretreatment on in vivo AHR elicited by allergen challenge (allergic rabbits): only suppressed AHR | effect of pretreatment on pulmonary inflammation elicited by allergen challenge (allergic rabbits): no appreciable inhibitory effect | effect on constitutively increased p-Src levels ([5]; 1 μM × 30 min): acutely suppressed | effect on Gβ distribution (increased free Gβ, reduced Gα-associated Gβ) [6]: acutely reversed | effect of pretreatment on IL-13-induced co-localization of p-Src with immunoprecipitated Gβ [7]: abrogated | effect on Gβ distribution [8]: neither inhibitor had an effect | effect on constitutively increased p-ERK1/2 levels [9]: acutely suppressed | effect on heightened co-localization of ERK1/2 with PDE4D [10]: acutely reversed

IL-13: pro-asthmatic Th2 cytokine used as stimulus
time of peak of evoked increase in free Gβ levels (free Gβ protein levels): 60 to 90 min | effect on co-localization of p-Src with immunoprecipitated Gβ ([7]; relative to unstimulated cells): increased co-localization; also recorded: enhanced co-localization

Oc1ccc(-c2nc(-c3ccncc3)c(-c3ccc(F)cc3)[nH]2)cc1 [SB202190]
effect on heightened basal PDE activity ([1]; 10 μM): no significant effect

COc1ccc([C@]2(C#N)CC[C@@H](C(=O)O)CC2)cc1OC1CCCC1 [cilomilast]
effect on increased PDE activity in cultured asthmatic HASM cells [4]: inhibited

O=c1cc(N2CCOCC2)oc2c(-c3ccccc3)cccc12 [LY294002]
effect on heightened basal PDE activity ([1]; 10 μM): no significant effect

CN(C)S(=O)(=O)c1ccc2c(c1)/C(=C/c1cc3c([nH]1)CCCC3)C(=O)N2 [SU6656]
effect on heightened basal PDE activity ([1]; 10 μM): suppressed to near normal levels; also recorded: acutely reversed to near normal levels | effect on constitutively increased p-Src levels ([5]; SU6656 10 μM): suppressive effect
